# Assay results reported in ChEMBL document CHEMBL1201862, “PubChem BioAssay data set” (2004).
# The source made the active and inactive calls.
# Tests used:
# Cytochrome P450 3A4 [1] = biological target: T1, Cytochrome P450 3A4 (Homo sapiens, UniProt P08684); conditions: Potency
# HEK293 [2] = assay: NOD1 signaling inhibitors, primary screen, cell-based, luminescence, uHTS (AID 1578); format: functional; conditions: Homo sapiens
# HEK293 [3] = assay: cells; format: functional, cell-based; conditions: Homo sapiens
# HEK293 [4] = assay: cells; format: functional, cell-based; conditions: Homo sapiens; remark: listed apart in the source
# [5] = biological target: Nucleotide-binding oligomerization domain-containing protein 2 (Homo sapiens, UniProt Q9HC29); assay: NOD2 signaling inhibitors, cell-based, luminescence, uHTS, HEK293 (AID 1566); format: functional
# HEK293 [6] = assay: NOD2 signaling inhibitors in MDP-stimulated cells, cell-based, uHTS, luminescence (AID 2001); format: functional; conditions: Homo sapiens
# HEK293 [7] = assay: cells; format: functional, cell-based; conditions: Homo sapiens; remark: listed apart in the source
# [8] = cytotoxicity in HEK-293T cells, dose response, cytotoxicity control for BCR NF-kB inhibitor project, luminescence, B-cell screen hits (AID 489021); format: functional, cell-based;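 also: HEK-293T cells carrying an NF-kB luciferase reporter; cells exposed to compound for about 14 hours before viability readout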
# [9] = inhibitors of firefly luciferase expression or activity, dose response, H4 neuroglioma cells, luminescence (AID 1990); format: functional, cell-based
# [10] = Luminescence Cell-Based Dose Response HTS to Identify Inhibitors of 5'UTR Stem-Loop Driven Prion Protein mRNA Translation in H4 Neuroglioblastoma Cells. [Related pubchem assays: 1827 (Project Summary), 1813 (Primary HTS)]; format: functional
# [11] = inhibitors of SNCA 5'UTR-driven reporter translation, confirmation, H4 neuroglioma cells, luminescence (AID 1988); format: functional, cell-based
# [12] = cytotoxicity in HEK-293T cells, dose response, cytotoxicity control for TCR NF-kB inhibitor project, luminescence, T-cell screen hits (AID 489026); format: functional, cell-based;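 also: cells exposed to compound about 14 hours before the viability readout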
# INS1 = assay: beta cell apoptosis inhibitors, cytokine rescue, dose response, luminescence, retest (AID 449756); format: functional, cell-based; conditions: Rattus norvegicus;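 also: cell death triggered by IL-1 beta plus TNF-alpha plus IFN-gamma mixture; protective hits raise ATP signal compared with cytokine alone wells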
# Cytochrome P450 3A4 [13] = biological target: T1, Cytochrome P450 3A4
# [14] = biological target: T2, Voltage-gated N-type calcium channel alpha-1B subunit/Amyloid beta A4 precursor protein-binding family A member 1 (Homo sapiens, UniProt Q00975+Q02410); format: protein assay
# [15] = biological target: T2, Voltage-gated N-type calcium channel alpha-1B subunit/Amyloid beta A4 precursor protein-binding family A member 1; format: protein assay; remark: listed apart in the source
# [16] = biological target: T3, Heat shock factor protein 1 (Mus musculus, UniProt P38532); assay: HSF1 potentiators in luciferase reporter cells, confirmation, cell-based, NIH3T3, luminescence, dose retest (AID 435004); format: functional;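 also: stress induced by proteasome inhibitor MG132 added 30 min after compound; luciferase reporter driven by HSF1 response element in NIH3T3 cells; actives raise luminescence as potentiators of the MG132 stress response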
# T3 sequence (P38532 whole entry): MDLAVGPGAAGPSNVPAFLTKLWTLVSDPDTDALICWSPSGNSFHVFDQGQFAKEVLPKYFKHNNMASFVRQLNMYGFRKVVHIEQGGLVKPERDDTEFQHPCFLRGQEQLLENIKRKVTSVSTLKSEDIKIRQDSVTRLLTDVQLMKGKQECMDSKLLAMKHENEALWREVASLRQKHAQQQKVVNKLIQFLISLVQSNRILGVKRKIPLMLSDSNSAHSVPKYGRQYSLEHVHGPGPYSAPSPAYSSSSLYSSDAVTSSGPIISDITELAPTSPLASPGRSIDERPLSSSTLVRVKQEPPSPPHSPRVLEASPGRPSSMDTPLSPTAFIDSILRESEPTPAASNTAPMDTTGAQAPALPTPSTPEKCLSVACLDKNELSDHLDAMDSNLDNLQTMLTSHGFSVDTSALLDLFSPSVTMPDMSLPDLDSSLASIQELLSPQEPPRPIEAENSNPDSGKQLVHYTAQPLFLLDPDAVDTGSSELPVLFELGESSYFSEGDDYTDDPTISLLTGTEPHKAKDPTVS
# Paired box protein Pax-8 = Paired box protein Pax-8 (Homo sapiens, UniProt Q06710); assay: inhibitors of PAX8-driven TPO luciferase reporter, dose response, RMG-I cells, cherry-pick (AID 687027); format: functional, cell-based;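 also: luciferase reporter driven by Pax8 target thyroperoxidase promoter measured by SteadyGlo luminescence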
# [17] = non-specific cell cytotoxicity, dose response, cytotoxicity control for PAX8 inhibitor project, plate reader, dry powder samples (AID 743021); format: functional, cell-based
# Genome polyprotein = Genome polyprotein (dengue virus type 2, UniProt P29990); assay: Dengue-2 NS5 methyltransferase inhibitors, primary screen, biochemical, confirmation dose response (AID 588689); format: functional
# [18] = biological target: T4, Rac GTPase-activating protein 1 (Homo sapiens, UniProt Q9H0H5); assay: MgcRacGAP GTPase-activating activity inhibitors, confirmation, biochemical, ADP Hunter fluorescence, primary and confirmatory (AID 624330); format: functional
# T4 sequence (Q9H0H5 whole entry): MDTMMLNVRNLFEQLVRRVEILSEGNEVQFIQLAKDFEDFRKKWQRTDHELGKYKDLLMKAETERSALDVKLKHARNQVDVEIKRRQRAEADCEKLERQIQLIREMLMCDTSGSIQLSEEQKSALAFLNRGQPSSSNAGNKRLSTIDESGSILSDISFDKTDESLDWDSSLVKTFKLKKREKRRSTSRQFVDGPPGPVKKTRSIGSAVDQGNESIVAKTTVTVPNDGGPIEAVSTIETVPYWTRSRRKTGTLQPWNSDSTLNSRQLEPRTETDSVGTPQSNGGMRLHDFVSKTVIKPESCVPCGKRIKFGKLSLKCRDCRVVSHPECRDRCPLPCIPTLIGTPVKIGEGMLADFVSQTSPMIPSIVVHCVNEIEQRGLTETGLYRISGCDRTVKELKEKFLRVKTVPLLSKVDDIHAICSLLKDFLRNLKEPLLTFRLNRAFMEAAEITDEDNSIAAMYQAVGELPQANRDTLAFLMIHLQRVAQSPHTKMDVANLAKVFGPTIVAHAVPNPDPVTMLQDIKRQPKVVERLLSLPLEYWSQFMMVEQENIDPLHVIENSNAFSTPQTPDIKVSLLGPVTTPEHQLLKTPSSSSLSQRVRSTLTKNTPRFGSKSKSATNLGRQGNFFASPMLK
# [19] = biological target: T5, Microphthalmia-associated transcription factor (Homo sapiens, UniProt O75030); assay: TRPM1 promoter luciferase signal decrease, dose response, MITF inhibitor project, cell-based, SK-MEL-5, cherry-picked, set 3 (AID 493073); format: functional
# T5 sequence (O75030 whole entry): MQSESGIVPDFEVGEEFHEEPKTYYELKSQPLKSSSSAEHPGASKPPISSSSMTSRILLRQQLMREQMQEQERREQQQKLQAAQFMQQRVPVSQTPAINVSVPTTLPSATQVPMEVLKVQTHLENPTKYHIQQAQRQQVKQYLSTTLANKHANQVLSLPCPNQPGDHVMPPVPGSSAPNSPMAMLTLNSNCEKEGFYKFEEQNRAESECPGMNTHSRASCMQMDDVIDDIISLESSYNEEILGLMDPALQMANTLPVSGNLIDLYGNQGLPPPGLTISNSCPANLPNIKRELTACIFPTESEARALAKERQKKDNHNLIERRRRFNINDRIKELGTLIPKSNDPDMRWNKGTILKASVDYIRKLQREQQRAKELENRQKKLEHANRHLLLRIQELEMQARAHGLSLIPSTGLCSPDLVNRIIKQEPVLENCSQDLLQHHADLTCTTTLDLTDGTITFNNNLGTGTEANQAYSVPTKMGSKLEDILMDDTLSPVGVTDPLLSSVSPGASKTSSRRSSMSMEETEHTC
# [20] = biological target: T6, Ubiquitin-conjugating enzyme E2 N (Homo sapiens, UniProt P61088); format: functional;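 also: Dose-response confirmation in a TR-FRET assay detecting UBC13-driven polyubiquitin chain formation, inhibition measured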
# T6 sequence (P61088 whole entry): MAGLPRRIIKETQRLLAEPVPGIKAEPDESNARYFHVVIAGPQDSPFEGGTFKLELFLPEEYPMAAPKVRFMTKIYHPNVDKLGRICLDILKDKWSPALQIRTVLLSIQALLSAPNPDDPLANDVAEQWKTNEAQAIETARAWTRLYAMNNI
# [21] = insulin promoter down-regulators in MIN6 cells, imaging, high-content screening, mouse beta cells (AID 1628); format: functional
# [22] = system: Streptococcus sp. 'group A'; assay: growth inhibition of control SK(-) GAS strain, dose response, counter-screen for streptokinase expression inhibitor project, luminescence, kanamycin, BacTiterGlo, confirmation (AID 1900); format: functional, organism-based
# cells [23] = format: functional, cell-based
# [24] = cytotoxicity in MIN6 insulinoma cells, dose response, cytotoxicity control, cell-based, mouse insulinoma (AID 2122); format: functional;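 also: confirmatory high-throughput counterscreen run to flag cytotoxic compounds; mouse MIN-6 beta cells carrying an insulin promoter eGFP reporter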
# [25] = inhibitors of intracellular T. cruzi replication, confirmation, NIH3T3 host cells, beta-gal luminescence (AID 2044); format: functional, cell-based;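 also: intracellular parasites grown in NIH/3T3 mouse fibroblasts as host cells; luminescent beta-galactosidase reporter signal from transgenic T. cruzi replicating inside host cells; inhibitors lower the luminescence signal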
# cells [26] = format: functional, cell-based; remark: listed apart in the source
# [27] = cytotoxicity toward NIH3T3 fibroblasts, dose response, counter-screen, cell-based, ATP luminescence, mouse fibroblasts (AID 2010); format: functional;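 also: cells exposed to compound for about 90 hours before reading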
# Streptococcus = assay: Group A Streptococcus viability loss, dose response, counter-screen for streptokinase expression inhibitor project, luminescence, BacTiterGlo (AID 1915); format: functional, organism-based;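 also: potency for reduction of bacterial viability or growth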
# [28] = Luminescence Cell-Based Dose Retest to Confirm Inhibitors of Cancer Stem Cells. [Related pubchem assays (depositor defined):AID2717, AID2721]; format: functional; conditions: Homo sapiens
# T2 sequence (Q00975 whole entry): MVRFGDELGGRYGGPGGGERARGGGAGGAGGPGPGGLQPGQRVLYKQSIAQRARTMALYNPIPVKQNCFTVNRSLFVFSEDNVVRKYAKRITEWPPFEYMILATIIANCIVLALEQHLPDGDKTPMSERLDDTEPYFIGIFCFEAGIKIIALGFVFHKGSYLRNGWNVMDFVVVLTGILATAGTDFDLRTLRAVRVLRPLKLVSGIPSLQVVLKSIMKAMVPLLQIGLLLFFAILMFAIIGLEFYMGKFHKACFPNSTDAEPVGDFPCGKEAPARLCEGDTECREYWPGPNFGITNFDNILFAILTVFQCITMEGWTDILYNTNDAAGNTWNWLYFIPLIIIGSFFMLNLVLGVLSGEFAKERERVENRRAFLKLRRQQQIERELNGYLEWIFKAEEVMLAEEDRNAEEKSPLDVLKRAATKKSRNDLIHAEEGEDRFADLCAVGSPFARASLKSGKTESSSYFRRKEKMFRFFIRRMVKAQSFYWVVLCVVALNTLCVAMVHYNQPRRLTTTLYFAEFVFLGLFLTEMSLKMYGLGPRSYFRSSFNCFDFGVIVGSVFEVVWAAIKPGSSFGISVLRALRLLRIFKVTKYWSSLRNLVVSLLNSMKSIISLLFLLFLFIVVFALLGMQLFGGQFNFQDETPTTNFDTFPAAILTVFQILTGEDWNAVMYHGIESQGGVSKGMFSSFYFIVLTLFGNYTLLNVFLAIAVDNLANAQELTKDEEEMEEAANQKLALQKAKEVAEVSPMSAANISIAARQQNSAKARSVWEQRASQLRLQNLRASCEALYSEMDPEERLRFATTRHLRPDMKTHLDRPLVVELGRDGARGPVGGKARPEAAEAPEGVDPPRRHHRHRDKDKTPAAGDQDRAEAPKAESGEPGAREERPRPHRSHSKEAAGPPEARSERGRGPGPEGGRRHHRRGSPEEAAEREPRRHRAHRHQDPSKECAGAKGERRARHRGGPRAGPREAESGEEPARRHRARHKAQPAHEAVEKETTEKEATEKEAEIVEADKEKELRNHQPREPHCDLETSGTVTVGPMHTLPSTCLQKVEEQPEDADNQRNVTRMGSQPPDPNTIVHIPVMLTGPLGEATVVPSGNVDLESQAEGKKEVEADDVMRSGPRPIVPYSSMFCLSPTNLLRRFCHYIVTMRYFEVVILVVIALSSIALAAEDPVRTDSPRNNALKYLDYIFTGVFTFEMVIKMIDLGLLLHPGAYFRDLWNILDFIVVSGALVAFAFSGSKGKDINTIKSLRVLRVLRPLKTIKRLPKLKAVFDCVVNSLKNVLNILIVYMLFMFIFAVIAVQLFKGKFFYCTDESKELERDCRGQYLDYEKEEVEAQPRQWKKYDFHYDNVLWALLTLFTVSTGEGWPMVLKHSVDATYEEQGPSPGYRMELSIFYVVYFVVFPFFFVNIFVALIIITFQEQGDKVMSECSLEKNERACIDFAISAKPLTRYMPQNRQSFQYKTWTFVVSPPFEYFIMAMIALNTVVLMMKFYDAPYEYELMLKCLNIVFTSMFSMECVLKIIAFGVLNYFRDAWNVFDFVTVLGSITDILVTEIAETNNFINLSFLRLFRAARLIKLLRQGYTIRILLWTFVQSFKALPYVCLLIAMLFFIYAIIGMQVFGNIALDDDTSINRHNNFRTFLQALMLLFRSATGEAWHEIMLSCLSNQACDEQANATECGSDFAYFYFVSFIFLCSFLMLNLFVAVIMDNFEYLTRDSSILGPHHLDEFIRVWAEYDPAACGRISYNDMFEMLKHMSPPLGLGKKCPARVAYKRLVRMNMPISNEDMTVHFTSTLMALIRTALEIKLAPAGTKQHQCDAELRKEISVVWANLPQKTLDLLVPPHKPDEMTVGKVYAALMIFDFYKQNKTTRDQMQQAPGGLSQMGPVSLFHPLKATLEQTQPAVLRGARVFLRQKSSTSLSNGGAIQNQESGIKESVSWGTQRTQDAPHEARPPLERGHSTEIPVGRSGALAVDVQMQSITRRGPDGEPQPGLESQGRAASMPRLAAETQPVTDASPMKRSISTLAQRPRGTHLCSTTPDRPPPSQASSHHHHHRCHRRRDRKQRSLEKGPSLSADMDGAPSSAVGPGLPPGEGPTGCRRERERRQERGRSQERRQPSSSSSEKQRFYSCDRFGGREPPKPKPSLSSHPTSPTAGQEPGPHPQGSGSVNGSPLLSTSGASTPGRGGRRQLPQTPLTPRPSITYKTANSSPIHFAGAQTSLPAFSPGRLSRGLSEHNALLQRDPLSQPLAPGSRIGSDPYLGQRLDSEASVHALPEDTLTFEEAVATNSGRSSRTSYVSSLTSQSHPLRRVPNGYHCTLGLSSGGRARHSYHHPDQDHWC
# T2 sequence (Q02410 whole entry): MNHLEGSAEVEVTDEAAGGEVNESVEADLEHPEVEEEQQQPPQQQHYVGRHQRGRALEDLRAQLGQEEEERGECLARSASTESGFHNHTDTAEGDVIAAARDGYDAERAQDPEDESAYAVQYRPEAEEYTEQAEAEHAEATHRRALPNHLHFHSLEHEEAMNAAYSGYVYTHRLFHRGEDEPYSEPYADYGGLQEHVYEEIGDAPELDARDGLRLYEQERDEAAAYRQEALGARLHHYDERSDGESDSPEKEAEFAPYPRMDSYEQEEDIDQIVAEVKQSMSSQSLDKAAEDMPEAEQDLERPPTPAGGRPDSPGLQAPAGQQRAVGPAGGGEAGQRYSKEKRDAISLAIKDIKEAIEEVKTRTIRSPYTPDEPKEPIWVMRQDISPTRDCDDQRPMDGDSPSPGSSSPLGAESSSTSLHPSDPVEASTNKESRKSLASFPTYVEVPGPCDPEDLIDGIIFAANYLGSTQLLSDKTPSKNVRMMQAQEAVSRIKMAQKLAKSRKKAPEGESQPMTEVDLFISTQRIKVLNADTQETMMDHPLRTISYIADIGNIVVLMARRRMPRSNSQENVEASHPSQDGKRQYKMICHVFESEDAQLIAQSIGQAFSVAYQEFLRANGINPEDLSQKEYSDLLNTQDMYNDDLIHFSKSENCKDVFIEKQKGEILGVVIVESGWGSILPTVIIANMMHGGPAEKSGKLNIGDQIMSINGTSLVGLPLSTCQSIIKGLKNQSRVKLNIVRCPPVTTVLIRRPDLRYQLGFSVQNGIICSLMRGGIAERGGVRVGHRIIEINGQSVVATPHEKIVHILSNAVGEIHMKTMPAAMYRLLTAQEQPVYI
# T1 sequence (P08684 whole entry): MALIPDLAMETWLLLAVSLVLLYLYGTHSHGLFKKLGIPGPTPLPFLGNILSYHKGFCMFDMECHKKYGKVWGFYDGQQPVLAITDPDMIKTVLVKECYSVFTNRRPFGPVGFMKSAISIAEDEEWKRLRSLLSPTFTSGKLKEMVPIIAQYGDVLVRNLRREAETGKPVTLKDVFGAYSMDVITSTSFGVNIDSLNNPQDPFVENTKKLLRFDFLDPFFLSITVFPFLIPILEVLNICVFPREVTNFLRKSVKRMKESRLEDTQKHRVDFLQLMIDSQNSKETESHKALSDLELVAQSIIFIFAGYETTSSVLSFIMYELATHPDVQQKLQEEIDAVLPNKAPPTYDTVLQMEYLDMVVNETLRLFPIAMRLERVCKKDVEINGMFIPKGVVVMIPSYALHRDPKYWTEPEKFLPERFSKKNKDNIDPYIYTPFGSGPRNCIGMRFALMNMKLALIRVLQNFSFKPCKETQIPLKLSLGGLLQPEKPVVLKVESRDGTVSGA
# Chain of Nucleotide-binding oligomerization domain-containing protein 2 (Q9HC29 whole entry, the tested form may be a part): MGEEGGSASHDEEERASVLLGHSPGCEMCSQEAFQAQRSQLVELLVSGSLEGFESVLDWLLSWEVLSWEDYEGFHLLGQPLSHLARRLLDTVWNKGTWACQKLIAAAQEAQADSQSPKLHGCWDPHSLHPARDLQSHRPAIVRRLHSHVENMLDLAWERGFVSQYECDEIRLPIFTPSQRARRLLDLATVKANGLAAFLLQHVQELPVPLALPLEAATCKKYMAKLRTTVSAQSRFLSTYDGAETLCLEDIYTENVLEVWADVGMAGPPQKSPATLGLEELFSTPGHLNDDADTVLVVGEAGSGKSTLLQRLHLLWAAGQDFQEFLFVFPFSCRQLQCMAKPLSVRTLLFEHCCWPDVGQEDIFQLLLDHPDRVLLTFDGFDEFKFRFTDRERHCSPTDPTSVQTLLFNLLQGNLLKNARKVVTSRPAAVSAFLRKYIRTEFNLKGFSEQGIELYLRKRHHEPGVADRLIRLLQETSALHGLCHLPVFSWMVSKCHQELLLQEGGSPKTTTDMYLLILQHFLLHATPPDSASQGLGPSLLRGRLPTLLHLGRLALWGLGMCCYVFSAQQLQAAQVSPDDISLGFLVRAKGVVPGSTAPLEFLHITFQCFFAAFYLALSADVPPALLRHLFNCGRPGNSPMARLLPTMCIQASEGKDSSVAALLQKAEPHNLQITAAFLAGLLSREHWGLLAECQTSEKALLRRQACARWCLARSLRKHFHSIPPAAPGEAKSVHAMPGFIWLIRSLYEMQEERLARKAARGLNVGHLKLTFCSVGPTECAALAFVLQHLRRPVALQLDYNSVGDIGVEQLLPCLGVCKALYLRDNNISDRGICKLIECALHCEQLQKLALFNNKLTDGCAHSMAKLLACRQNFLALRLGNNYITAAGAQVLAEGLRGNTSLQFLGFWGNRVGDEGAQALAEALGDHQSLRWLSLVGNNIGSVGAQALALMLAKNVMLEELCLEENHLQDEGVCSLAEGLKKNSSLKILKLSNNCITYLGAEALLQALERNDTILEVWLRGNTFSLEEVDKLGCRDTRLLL
structure (smiles),measurement,setting,value
CCOC(=O)[C@]1(C(NC(=O)OC)c2ccccc2)CCCC1=O (some centres not stated),AC50,Cytochrome P450 3A4 [1],2.51 µM (inconclusive)
COc1ccc(C)cc1NC(=O)c1sc2ncnc(N3CCN(c4ccccn4)CC3)c2c1C,EC50,HEK293 [2],> 20 µM (inactive)
same,IC50,HEK293 [3],> 20 µM (inactive)
same,IC50,HEK293 [4],> 20 µM (inactive)
same,EC50,[5],> 20 µM (inactive)
same,IC50,HEK293 [6],> 20 µM (inactive)
same,IC50,HEK293 [7],> 20 µM (inactive)
CCn1c(S)nc2cc(S(=O)(=O)N3CCCCC3)ccc21,IC50,[8],> 80 µM (inactive)
COC(=O)c1cccc(C23CC4(C2)[C@H](CN(CC2CCCCC2)[C@@H]4c2ccccc2)C3c2ccc(C(F)(F)F)cc2)c1 (some centres not stated),AC50,Cytochrome P450 3A4 [1],15.8 µM (inconclusive)
FC(F)(F)c1ccc(C2[C@H]3CN(Cc4ccc(-c5ccccc5)cc4)[C@H](c4ccccc4)C34CC2(c2cccnc2)C4)cc1 (some centres not stated),AC50,Cytochrome P450 3A4 [1],15.8 µM (inconclusive)
Cc1ccc2nc(C)c(CN3CCN(c4ccc([N+](=O)[O-])cc4Cl)CC3)n2c1,EC50,[9],> 120 µM (not active)
same,EC50,[10],17.1 µM (active)
same,EC50,[11],> 120 µM (not active)
same,IC50,[12],> 80 µM (inactive)
same,AC50,INS1,1.79 µM (active)
COC(=O)N1CCC2(CC1)CCN(c1cccc(-c3ccccc3)c1)CC2,AC50,Cytochrome P450 3A4 [13],inconclusive
COc1ccc(N2C(=O)CC(Sc3nnnn3-c3ccc(F)cc3)C2=O)cc1 (configuration not stated),IC50,[14],11 µM (active)
same,IC50,[15],3.95 µM (active)
same,EC50,[16],17.1 µM (active)
same,AC50,Paired box protein Pax-8,13.6 µM (active)
same,AC50,[17],26.6 µM (active)
NNc1cc([N+](=O)[O-])cc2c1c(=O)n(Cc1ccccc1)[s+]2[O-] (configuration not stated),IC50,[14],10.3 µM (active)
same,IC50,[15],> 50 µM (inactive)
same,IC50,Genome polyprotein,63.4 µM (active)
same,IC50,[18],52.3 µM (active)
COc1ccc(/C=C2\SC(=S)N(CCCC(=O)NNC(=O)c3ccccc3O)C2=O)cc1,EC50,HEK293 [2],8.29 µM (active)
same,IC50,HEK293 [3],5.39 µM (active)
same,IC50,HEK293 [4],> 20 µM (inactive)
same,EC50,[5],> 20 µM (inactive)
same,IC50,HEK293 [6],5.62 µM (active)
same,IC50,HEK293 [7],> 20 µM (inactive)
same,AC50,[19],1.38 µM (active)
same,IC50,[8],> 80 µM (inactive)
Cc1sc2ncnc(N)c2c1C,IC50,[20],> 20 µM (inactive)
Cc1ccc(NC(=O)c2cc(=O)c3ccccc3o2)cc1S(=O)(=O)N1CCCCC1,EC50,HEK293 [2],8.74 µM (active)
same,IC50,HEK293 [4],> 20 µM (inactive)
same,EC50,[5],> 20 µM (inactive)
same,IC50,HEK293 [6],9.78 µM (active)
same,IC50,HEK293 [7],> 20 µM (inactive)
CC(C)c1ccc(/C=C2\SC(=S)N(CCC(=O)N3CCCCC3CCO)C2=O)cc1 (configuration not stated),AC50,[19],7.43 µM (active)
same,IC50,[8],72.4 µM (inactive)
Cc1ccc(-c2nn(-c3ccccc3)cc2/C=C/C(=O)O)o1,IC50,[14],17.6 µM (active)
same,IC50,[15],30.9 µM (active)
CS(=O)(=O)Nc1ccc(S(=O)(=O)N2CCOCC2)cc1,AC50,Cytochrome P450 3A4 [13],inconclusive
CCC(=O)NC(C)c1cc(Cl)c2ccccc2c1O (configuration not stated),IC50,[20],> 20 µM (inactive)
COc1ccnc2c1c(=O)n(Cc1ccc(F)cc1)c(=O)n2C,IC50,[20],> 20 µM (inactive)
O=C(N/N=C/c1cc(Br)ccc1O)C(=O)Nc1ccccc1OC(F)(F)C(F)F,IC50,[21],1.93 µM (active)
same,EC50,[22],0.866 µM (active)
same,EC50,cells [23],10.9 µM (active)
same,IC50,[24],2.22 µM (active)
same,EC50,[25],0.572 µM (active)
same,EC50,cells [26],> 350 µM (not active)
same,EC50,[27],8.61 µM (active)
same,EC50,Streptococcus,1.82 µM (active)
same,AC50,[28],1.62 µM (active)
same,AC50,INS1,2.17 µM (active)
CCc1cccc(NC(=O)c2ccc(CNc3c(N4CCCC4)c(=O)c3=O)cc2)c1,IC50,[8],> 80 µM (inactive)
